Source: paper PMC2206373, “Identification of an altered peptide ligand based on the endogenously presented, rheumatoid arthritis-associated, human cartilage glycoprotein-39(263–275) epitope: an MHC anchor variant peptide for immune modulation” (Arthritis Research & Therapy, 2007)
Read-outs that look alike come from different tables or passages of the source. Non-standard residues stand in square brackets, D forms with d. Residues, ends and D or L forms follow the SMILES beside them. No end group written: not given here. Dip = N[C@H](C(=O)O)C(c1ccccc1)c1ccccc1; Tic = O=C(O)[C@@H]1Cc2ccccc2CN1

Columns and labels:
[1] = tested on: popliteal lymph node cells from F265(Dip)-immunized HLA-DR4trg mice; assay: Antigen-specific cytokine production of popliteal lymph node cells from F265(Dip)-immunized mice; assay type: cell-based, mouse; conditions: Figure 4b
Protocol: (§1) Mice, obtained from L Fugger (Oxford, UK), were immunized in the hind footpads with 2 × 50 μg of purified recombinant HC gp-39, with 2 × 100 μg of the WT peptide or with 2 × 100 μg of the APL (F265(Dip); compound 28; Figure 1) mixed in IFA. Seven days later, popliteal lymph node cell suspensions (1 to 2 × 10^5 cells/well) were stimulated in vitro with HC gp-39 (50, 10 or 2 μg/ml), HC gp-39(263–275) or APL (10, 2 and 0.4 μg/ml). At 96 h, 50 μl of culture medium was harvested for analysis of antigen-specific cytokine production using Luminex technology (mouse cytokine 18 Plex Panel, catalogue no. 171-F11181, Biorad, Bio-Rad Laboratories, Hercules, CA, USA). In addition, cultures were labelled with tritiated thymidine (for 18 h) and antigen-specific proliferation was determined. We state that all animal experimentation received ethics approval and animals were treated according to the recognized guidelines.

HLA-DR4(B1*0401) = HLA-DR4(B1*0401) (Homo sapiens, UniProt P01903+P01911, A100K/A169T/F76Y/I96L/K127E/L162R/M171V/N62H/P40V/Q125Y/R42H/S133A/S149N/S66Y/V115G/V209L/W38E); assay: HLA-DR4 competition peptide binding assay; conditions: competition with biotinylated HA307-319 (Y309F) 50 nM, purified HLA-DR4 30 nM, pH 5, 48 h, room temperature
Protocol: HLA-DR bound marker peptide was separated from free marker peptide and the amount of bound marker peptide was detected and quantified by enhanced chemoluminescense. Inhibition curves were generated and the IC50 was determined. The concentration of competitor peptide inducing 50% inhibition of marker peptide binding was determined, and expressed as the 50% inhibitory concentration (IC50 in μM).

[2] = tested on: popliteal lymph node cells from HC gp-39(263–275)-immunized huCD4, HLA-DR4 transgenic mice; assay: Antigen-specific proliferation of popliteal lymph node cells from WT peptide-immunized mice; assay type: cell-based, mouse; conditions: for Ex vivo recall proliferative response in words: Figure 4a, WT peptide-immunized HLA-DR4trg mice; for Prol (SI): 96 h, tritiated thymidine, background 407 cpm, SI > 2 positive, SD not above 30%
Protocol: as §1

T cell hybridoma 5G11 = assay: T hybridoma 5G11 IL-2 response; assay type: cell-based, mouse; conditions: for T hybridoma (SI) 5G11: Figure 1, IL-2 production, duplicate or triplicate, background 29,203 counts, ±30% of WT response = super/partial agonist; for T hybridoma (SI) 5G11 / Hybridoma response (SI) 5G11: DRB1*0401 BLCL as APC; for Hybridoma response (SI) 5G11: IL-2 by ELISA after 48 h, peptide 10 μg/ml, SI > 2 positive
Protocol: (§2) The T cell hybridomas, provided by G Sonderstrup (Stanford, CA, USA), were generated as described. In brief, human CD4, HLA-DRA*101/HLA-DRB*0401 triple transgenic (HLA-DR4trg) mice (devoid of I-Aβ) were immunized in the footpad with 50 μg of purified HC gp-39 mixed in incomplete Freund's adjuvant (IFA). Draining lymph nodes were isolated and T-cell hybridomas were generated by polyethylene glycol fusion of primed and in vitro antigen-restimulated lymph node cells with the AKR BW5147 fusion partner. Following fusion, growth-positive hybridoma wells were screened for reactivity to HC gp-39 and a set of 55 peptides (16 amino acids in length) covering the entire HC gp-39 sequence. HLA-DR4(B1*0401)-restricted hybridomas responsive to both the HC gp-39 protein and the immunodominant epitope 263–275 of HC gp-39 (for example, 5G11, 8B12, 14G11 and 20H5) were cloned, subcloned, characterised and selected for further study.
(§3) HC gp-39-specific IL-2 production by T hybridomas was measured in wells of round-bottomed microtiter plates. Hybridoma cells (2 to 5 × 10^4) and irradiated APC (0.5 to 1 × 10^5; 12,000 to 16,000 RAD) from the B lymphoblastoid cell line (BLCL) carrying the DRB1*0401 specificity were incubated in 150 μl volumes. Antigen was added in 50 μl volumes to duplicate wells. After 48 h, 100 μl of the culture supernatant was assayed for IL-2 production using a sandwich ELISA with Pharmingen antibodies specific for mouse IL-2. The antigen sensitivity of the hybridomas to both peptide and protein was determined (Figure 2). […] In later assays, an excess of peptide or APL (10 μg/ml), inducing maximal responses in all hybridomas, was tested.

[3] = tested on: popliteal lymph node cells from HC gp-39(263–275)-immunized huCD4, HLA-DR4 transgenic mice; assay: Antigen-specific cytokine production of popliteal lymph node cells from WT peptide-immunized mice; assay type: cell-based, mouse; conditions: for Ex vivo recall IFNγ production in words / Ex vivo recall Mip1α production in words / Ex vivo recall RANTES production in words: Figure 4a, WT peptide-immunized HLA-DR4trg mice; for IFNγ concentration / MIP1α concentration / RANTES concentration: 96 h supernatant, Luminex
Protocol: as §1

T cell hybridoma 8B12 = assay: T hybridoma 8B12 IL-2 response; assay type: cell-based, mouse; conditions: for T hybridoma (SI) 8B12: Figure 1, IL-2 production, duplicate or triplicate, background 16,288 counts, ±30% of WT response = super/partial agonist; for T hybridoma (SI) 8B12 / Hybridoma response (SI) 8B12: DRB1*0401 BLCL as APC; for Hybridoma 8B12 activation (IL-2 production) in words: Figure 1 experiment, compared with WT peptide; for Hybridoma response (SI) 8B12: IL-2 by ELISA after 48 h, peptide 10 μg/ml, SI > 2 positive
Protocol: as §2, §3

T cell hybridoma 14G11 = assay: T hybridoma 14G11 IL-2 response; assay type: cell-based, mouse; conditions: for T hybridoma (SI) 14G11: Figure 1, IL-2 production, duplicate or triplicate, background 7,152 counts, ±30% of WT response = super/partial agonist; for T hybridoma (SI) 14G11 / Hybridoma response (SI) 14G11: DRB1*0401 BLCL as APC; for Hybridoma 14G11 activation (IL-2 production) in words: Figure 1 experiment, compared with WT peptide; for Hybridoma response (SI) 14G11: IL-2 by ELISA after 48 h, peptide 10 μg/ml, SI > 2 positive
Protocol: as §2, §3

[4] = tested on: popliteal lymph node cells from F265(Dip)-immunized HLA-DR4trg mice; assay: Antigen-specific proliferation of popliteal lymph node cells from F265(Dip)-immunized mice; assay type: cell-based, mouse; conditions: Figure 4b
Protocol: as §1

T cell hybridoma 20H5 = assay: T hybridoma 20H5 IL-2 response; assay type: cell-based, mouse; conditions: for Hybridoma response (SI) 20H5: IL-2 by ELISA after 48 h, peptide 10 μg/ml, DRB1*0401 BLCL as APC, SI > 2 positive
Protocol: as §2, §3

[5] = Figure 1, read-out: DRB1*0401 binding IC50
[6] = Table 1, geometric mean of two experiments, read-out: HLA-DR binding IC50
[7] = Table 1, background 8,147 counts, representative of at least three experiments
[8] = Table 1, background 7,470 counts, representative of at least three experiments
[9] = Table 1, background 35,749 counts, representative of at least three experiments
[10] = Table 1, background 8,598 counts, representative of at least three experiments

Molecule | In vitro recall IFNγ production in words [1] | In vitro recall Mip1α production in words [1] | In vitro recall RANTES production in words [1] | IC50 (HLA-DR4(B1*0401); [5]) | Ex vivo recall proliferative response in words [2] | T hybridoma (SI) 5G11 (T cell hybridoma 5G11) | Ex vivo recall IFNγ production in words [3] | Ex vivo recall Mip1α production in words [3] | Ex vivo recall RANTES production in words [3] | T hybridoma (SI) 8B12 (T cell hybridoma 8B12) | Hybridoma 8B12 activation (IL-2 production) in words (T cell hybridoma 8B12) | T hybridoma (SI) 14G11 (T cell hybridoma 14G11) | Hybridoma 14G11 activation (IL-2 production) in words (T cell hybridoma 14G11) | In vitro recall proliferative response in words [4] | IC50 (HLA-DR4(B1*0401); [6]) | Hybridoma response (SI) 5G11 (T cell hybridoma 5G11; [7]) | Hybridoma response (SI) 8B12 (T cell hybridoma 8B12; [8]) | Hybridoma response (SI) 20H5 (T cell hybridoma 20H5; [9]) | Hybridoma response (SI) 14G11 (T cell hybridoma 14G11; [10]) | further results
CC(C)C[C@H](NC(=O)[C@@H](NC(=O)[C@@H]1Cc2ccccc2CN1C(=O)[C@H](CO)NC(=O)[C@@H](N)CCCNC(=N)N)[C@@H](C)O)C(=O)N[C@@H](C)C(=O)N[C@@H](CO)C(=O)N[C@@H](CO)C(=O)N[C@@H](CCC(=O)O)C(=O)N[C@H](C(=O)NCC(=O)N[C@H](C(=O)NCC(=O)O)C(C)C)[C@@H](C)O [Compound 27] (H-RS[Tic]TLASSETGVG-OH) | failed to induce significant levels | failed to induce significant levels | failed to induce significant levels | 21 nM | comparable proliferative responses | 12 SI | increased production | increased production | increased production | 8 SI | partial activation | 21 SI | partial activation |  |  |  |  |  |  | Hybridoma 5G11 activation (IL-2 production) in words (T cell hybridoma 5G11; Figure 1 experiment, compared with WT peptide): partial activation
CC(C)C[C@H](NC(=O)[C@@H](NC(=O)[C@@H](NC(=O)[C@H](CO)NC(=O)[C@@H](N)CCCNC(=N)N)C(c1ccccc1)c1ccccc1)[C@@H](C)O)C(=O)N[C@@H](C)C(=O)N[C@@H](CO)C(=O)N[C@@H](CO)C(=O)N[C@@H](CCC(=O)O)C(=O)N[C@H](C(=O)NCC(=O)N[C@H](C(=O)NCC(=O)O)C(C)C)[C@@H](C)O [Compound 28] (H-RS[Dip]TLASSETGVG-OH) | barely detectable | barely detectable | barely detectable | 10 nM | comparable proliferative responses | 29 SI | lesser | unaltered | unaltered | 5 SI | partial activation | 6 SI | partial activation | good proliferative activity |  |  |  |  |  | 
LASSETGVG [Compound 8] |  |  |  |  |  |  |  |  |  |  |  |  |  |  | > 100000 nM | 1 SI | 1 SI | 1 SI | 1 SI | 
RSATLASSETGVG [Compound 12] |  |  |  |  |  |  |  |  |  |  |  |  |  |  |  |  |  |  |  | IC50 (HLA-DR4(B1*0401); Table 2, read-out: HLA-DR binding IC50): > 35000 nM; Polyclonal response (proliferation and cytokine production) in words ([2]; Table 3, lymph node cells of WT peptide-immunized HLA-DR4trg mice): did not elicit a significant response; Prol (SI) ([2]; peptide 2 μg/ml): 1 SI; Prol (SI) ([2]; peptide 10 μg/ml): 3 SI; Recognition by hybridoma 5G11 in words (T cell hybridoma 5G11; Table 2): not recognized; Hybridoma response (SI) 5G11 (T cell hybridoma 5G11; Table 2, background 17,238 counts, SD not above 15%): 2 SI; IFNγ concentration ([3]; peptide 2 μg/ml): <5 pg/mL; MIP1α concentration ([3]; peptide 2 μg/ml): <24 pg/mL; RANTES concentration ([3]; peptide 2 μg/ml): <6 pg/mL; IFNγ concentration ([3]; peptide 10 μg/ml): <5 pg/mL; MIP1α concentration ([3]; peptide 10 μg/ml): 27 pg/mL; RANTES concentration ([3]; peptide 10 μg/ml): 9 pg/mL; Reactivity of hybridoma 8B12 in words (T cell hybridoma 8B12; Table 2): affected to a lesser extent; Hybridoma response (SI) 8B12 (T cell hybridoma 8B12; Table 2, background 8,773 counts, SD not above 15%): 6 SI; Reactivity of hybridoma 20H5 in words (T cell hybridoma 20H5; Table 2): only slightly affected; Hybridoma response (SI) 20H5 (T cell hybridoma 20H5; Table 2, background 290,666 counts, SD not above 15%): 4 SI; Recognition by hybridoma 14G11 in words (T cell hybridoma 14G11; Table 2): not recognized; Hybridoma response (SI) 14G11 (T cell hybridoma 14G11; Table 2, background 10,131 counts, SD not above 15%): 2 SI
TLASSETGVG [Compound 7] |  |  |  |  |  |  |  |  |  |  |  |  |  |  | > 100000 nM | 1 SI | 1 SI | 5 SI | 1 SI | 
human cartilage glycoprotein-39 [HC gp-39 protein] | failed to induce significant levels | failed to induce significant levels | failed to induce significant levels |  |  |  |  |  |  |  |  |  |  | somewhat less |  |  |  |  |  | 
